Molecules are shown by their SMILES.

For orientation: inhibition means the drop in the measured response relative to a control, in per cent.

The target in test [1] is T1, biotinylated FLNA pentapeptide of positions 2561-2565 (Homo sapiens, UniProt P21333).
T1 construct: the biotinylated FLNA pentapeptide of positions 2561-2565
In words: FITC-NLX-based FLNA screening assay. The format is binding. Conditions: for Percent inhibition of FITC-NLX binding (preliminary study): 100 nM frozen-stored FITC-NLX, average of two runs. As for the experimental part: [50 ml of the peptide solution from B+50 ml binding medium, final concentration for DMSO: 0.5%].
The final assay volume is 100 ml.
The final screening concentration for each new compound is initially 10 mM.
Compounds are tested in triplicate or quadruplicate.

The target of a further test is T2, mu opiate receptor (MOR) (Rattus norvegicus, UniProt P33535).
T2 construct: from tissue; host or cells: striatum (membrane preparation)
T2 sequence (P33535 whole entry): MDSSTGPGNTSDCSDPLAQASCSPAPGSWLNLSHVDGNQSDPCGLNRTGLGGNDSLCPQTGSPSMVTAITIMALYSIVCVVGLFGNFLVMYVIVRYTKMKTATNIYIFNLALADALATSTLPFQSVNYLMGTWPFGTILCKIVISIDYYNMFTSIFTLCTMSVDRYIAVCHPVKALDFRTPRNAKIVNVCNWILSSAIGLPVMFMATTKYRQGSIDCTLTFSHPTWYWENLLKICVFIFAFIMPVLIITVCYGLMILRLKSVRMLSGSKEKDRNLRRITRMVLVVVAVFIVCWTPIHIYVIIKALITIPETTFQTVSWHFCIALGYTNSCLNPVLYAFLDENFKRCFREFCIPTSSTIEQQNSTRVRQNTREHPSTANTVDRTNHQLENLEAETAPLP
In words: MOR agonist activity using [35S]GTPgS binding assay in striatal membranes. Format: biochemical. Also on record: MOR agonist activity (preliminary study): unit of the concentration uncertain. Conditions: for MOR agonist activity (preliminary study): average of two runs. Put shortly: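 Rat striatal membranes incubated 5 min at 30 °C in pH 7.5 HEPES buffer with 100 mM NaCl, 1 mM MgCl2 and 0.5 nM [35S]GTPgS, then 5 min with compound. Gαo-bound [35S]GTPgS isolated by immunoprecipitation and counted by liquid scintillation.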
In general terms: GTPγS resists hydrolysis and so accumulates on activated G proteins.

Test [2] concerns the target FLNA interactions with CXCR4, CD4 and CCR5 (Homo sapiens, UniProt P21333). The test can be described thus: FLNA interactions with CXCR4, CD4 and CCR5 in lymphocytes (western blot). The following applies: 1 nM; lymphocytes of Ab42-treated young control subject and of AD patient.
Where [3] appears, read: 0.1 μM compound as agonist, Series C-1 table.
The mark [4] stands for this setting: 1 μM compound as agonist, Series C-1 table.
Setting [5] is: 0.1 μM compound as agonist, Series C-2 table.
[6] abbreviates: 1 μM compound as agonist, Series C-2 table.

FLNA interactions with CXCR4, CD4 and CCR5, sequence (P21333 2-2647 limits assumed): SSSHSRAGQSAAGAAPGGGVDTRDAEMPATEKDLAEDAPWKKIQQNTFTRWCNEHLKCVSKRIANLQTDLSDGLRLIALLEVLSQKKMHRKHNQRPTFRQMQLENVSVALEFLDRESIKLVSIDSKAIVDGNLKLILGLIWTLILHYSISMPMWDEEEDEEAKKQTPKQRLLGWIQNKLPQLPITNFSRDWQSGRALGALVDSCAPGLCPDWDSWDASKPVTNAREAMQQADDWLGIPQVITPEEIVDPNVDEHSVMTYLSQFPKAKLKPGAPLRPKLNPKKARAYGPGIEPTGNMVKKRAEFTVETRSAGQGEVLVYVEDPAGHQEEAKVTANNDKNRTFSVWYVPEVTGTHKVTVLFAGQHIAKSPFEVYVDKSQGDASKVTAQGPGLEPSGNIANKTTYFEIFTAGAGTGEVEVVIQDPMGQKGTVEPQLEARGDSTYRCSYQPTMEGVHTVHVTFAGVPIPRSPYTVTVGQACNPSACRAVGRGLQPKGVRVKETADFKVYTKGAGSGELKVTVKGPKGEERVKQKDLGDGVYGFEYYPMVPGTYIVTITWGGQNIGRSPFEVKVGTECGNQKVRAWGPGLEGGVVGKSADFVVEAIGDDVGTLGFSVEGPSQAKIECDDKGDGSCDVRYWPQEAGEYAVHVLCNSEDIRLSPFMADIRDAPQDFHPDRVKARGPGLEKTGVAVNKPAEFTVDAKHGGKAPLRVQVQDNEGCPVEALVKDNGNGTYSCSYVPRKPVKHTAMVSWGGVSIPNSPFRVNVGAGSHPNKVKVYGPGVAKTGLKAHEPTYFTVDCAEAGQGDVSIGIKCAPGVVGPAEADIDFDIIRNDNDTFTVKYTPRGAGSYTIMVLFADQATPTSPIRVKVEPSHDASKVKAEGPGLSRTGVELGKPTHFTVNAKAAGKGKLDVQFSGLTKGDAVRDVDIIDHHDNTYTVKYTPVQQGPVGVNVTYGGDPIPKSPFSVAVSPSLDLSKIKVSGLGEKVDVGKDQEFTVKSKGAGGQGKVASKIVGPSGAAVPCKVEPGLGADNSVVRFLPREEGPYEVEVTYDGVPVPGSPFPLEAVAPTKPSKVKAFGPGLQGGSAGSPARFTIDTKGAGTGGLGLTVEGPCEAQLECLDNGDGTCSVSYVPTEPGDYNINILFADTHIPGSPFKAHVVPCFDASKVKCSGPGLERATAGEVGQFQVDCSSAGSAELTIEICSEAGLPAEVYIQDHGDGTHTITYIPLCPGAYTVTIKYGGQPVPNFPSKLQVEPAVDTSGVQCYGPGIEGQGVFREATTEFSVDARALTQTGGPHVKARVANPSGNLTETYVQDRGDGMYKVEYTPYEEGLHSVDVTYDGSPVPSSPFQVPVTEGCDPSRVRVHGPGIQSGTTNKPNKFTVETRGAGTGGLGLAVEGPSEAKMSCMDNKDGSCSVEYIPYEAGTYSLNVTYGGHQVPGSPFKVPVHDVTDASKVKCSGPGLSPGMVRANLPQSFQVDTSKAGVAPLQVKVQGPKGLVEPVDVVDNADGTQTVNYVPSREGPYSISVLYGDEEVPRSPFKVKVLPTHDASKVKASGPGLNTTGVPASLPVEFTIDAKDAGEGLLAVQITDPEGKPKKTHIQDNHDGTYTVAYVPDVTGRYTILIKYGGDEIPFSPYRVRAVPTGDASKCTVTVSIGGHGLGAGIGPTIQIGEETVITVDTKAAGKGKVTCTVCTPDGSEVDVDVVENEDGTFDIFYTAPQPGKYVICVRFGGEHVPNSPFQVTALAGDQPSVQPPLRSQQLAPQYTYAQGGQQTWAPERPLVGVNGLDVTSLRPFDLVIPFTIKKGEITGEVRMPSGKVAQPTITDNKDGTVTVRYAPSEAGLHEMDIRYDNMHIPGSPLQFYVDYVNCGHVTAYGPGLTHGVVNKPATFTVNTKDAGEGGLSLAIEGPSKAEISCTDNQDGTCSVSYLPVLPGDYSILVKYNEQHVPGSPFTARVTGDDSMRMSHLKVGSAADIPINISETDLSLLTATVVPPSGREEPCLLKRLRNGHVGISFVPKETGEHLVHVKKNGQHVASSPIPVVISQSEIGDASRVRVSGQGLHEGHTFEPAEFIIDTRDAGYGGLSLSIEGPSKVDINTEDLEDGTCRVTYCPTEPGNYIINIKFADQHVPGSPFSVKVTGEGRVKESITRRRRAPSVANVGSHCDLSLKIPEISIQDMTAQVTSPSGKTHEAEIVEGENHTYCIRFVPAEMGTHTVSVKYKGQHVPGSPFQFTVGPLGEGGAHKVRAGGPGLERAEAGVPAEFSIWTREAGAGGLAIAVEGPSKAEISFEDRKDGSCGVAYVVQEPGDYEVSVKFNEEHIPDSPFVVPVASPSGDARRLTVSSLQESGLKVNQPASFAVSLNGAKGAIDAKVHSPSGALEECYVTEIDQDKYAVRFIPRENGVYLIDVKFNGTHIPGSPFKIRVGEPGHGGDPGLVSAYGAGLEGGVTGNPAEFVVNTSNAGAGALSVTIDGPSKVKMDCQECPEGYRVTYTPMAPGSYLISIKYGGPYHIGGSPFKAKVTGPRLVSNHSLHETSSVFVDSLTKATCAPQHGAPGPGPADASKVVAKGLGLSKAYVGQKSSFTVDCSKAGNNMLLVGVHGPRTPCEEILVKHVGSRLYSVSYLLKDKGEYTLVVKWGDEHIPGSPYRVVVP

Regarding `C=CCN1CC[C@]23c4c5ccc(O)c4O[C@H]2C(=O)CC[C@]3(O)[C@H]1C5` [(+) NLX], the “Percent inhibition of FITC-NLX binding (preliminary study)” value was 22.7% in test [1] (0.1 nM compound); 22.8% in test [1] (1 nM compound); 23.1% in test [1] (10 nM compound); 22.8% in test [1] (100 nM compound); 39.8% in test [1] (1 mM compound).
As for `Nc1ccc(C(=O)N2CCC3(CC2)OCCN3S(=O)(=O)c2ccc(N)cc2)cc1` [Compound C0023], the inhibition at 0.01 µM in test [1] (0.01 μM compound, C-Series-1 table, 10 nM FITC-NLX, read-out: Percent Binding Inhibition) stood at 35.9%. Moreover, the inhibition at 0.1 µM in test [1] (0.1 μM compound, C-Series-1 table, 10 nM FITC-NLX, read-out: Percent Binding Inhibition) came out at 41.7%. In test [1] (1 μM compound, C-Series-1 table, 10 nM FITC-NLX, read-out: Percent Binding Inhibition), the inhibition at 1 µM was found to be 47.2%. The “MOR agonist activity ([35S]GTPgS binding to Gao)” value is 153.2% at mu opiate receptor (MOR) (setting [3]); 23.2% at mu opiate receptor (MOR) (1 μM + BFNA, Series C-1 table); 233.7% on mu opiate receptor (MOR) (setting [4]).
With `COc1ccc(NC(=O)N2CCC3(CC2)OCCN3C(=O)Nc2ccc(OC)cc2)cc1` [Compound C0151M], the “MOR agonist activity ([35S]GTPgS binding to Gao)” value is recorded as 346.8% on mu opiate receptor (MOR) (setting [3]); 212.8% at mu opiate receptor (MOR) (1 μM + BFNA, Series C-1 table); 397.6% on mu opiate receptor (MOR) (setting [4]).
As for `C[C@@H](NC(=O)[C@@H](N)Cc1ccc(O)cc1)C(=O)NCC(=O)N(C)[C@@H](Cc1ccccc1)C(=O)NCCO` [DAMGO, [D-Ala2, N-MePhe4, Gly-ol]-enkephalin, reference compound], the “MOR agonist activity ([35S]GTPgS binding to Gao)” value at mu opiate receptor (MOR) (setting [3]) was determined as 168.5%; on mu opiate receptor (MOR) (setting [5]), 168.5%; at mu opiate receptor (MOR) (1 μM + BFNA, Series C-1 table), 53.2%; at mu opiate receptor (MOR) (1 μM + BFNA, Series C-2 table), 53.2%; at mu opiate receptor (MOR) (setting [4]) it was 266.1%; on mu opiate receptor (MOR) (setting [6]), 266.1%. Further, the “MOR agonist activity (preliminary study)” value on mu opiate receptor (MOR) (1 mM + bNFA) was 56.8%; on mu opiate receptor (MOR) (0.1 (unit uncertain) compound as agonist) it was 144.7%; at mu opiate receptor (MOR) (1 (unit uncertain) compound as agonist), 233.4%.
Regarding `C=CCN1CC[C@]23c4c5ccc(O)c4O[C@H]2C(=O)CC[C@@]3(O)[C@H]1C5` [Naloxone, naloxone, reference compound], the “FLNA linkages with CXCR4, CD4 and CCR5 (in words)” value in test [2] is reported as “reduced these linkages”.
As for `COc1ccc(S(=O)(=O)N2CCSC23CCNCC3)cc1` [S-C0027], the “MOR agonist activity ([35S]GTPgS binding to Gao)” value at mu opiate receptor (MOR) (setting [5]) amounted to 156.2%; on mu opiate receptor (MOR) (1 μM + BFNA, Series C-2 table), 56.2%; at mu opiate receptor (MOR) (setting [6]), 286.8%.
